Measurements as given in patent publication US20050171053A1, “Carrageenan based antimicrobial compositions” (FMC Corporation, priority 2002, published 2005).
“Also recorded” adds a separate entry of the source.

Tests used:
[1] = test system: HSV-2; assay: HSV-2/mouse system, formulations with and without LSA; type: in vivo, mice; conditions: for effect of addition to the K-II/λ carrageenan composition on efficacy against HSV-2 infection in mice: 5% added
Description: LSA-carrageenan was compared to carrageenan in the HSV-2/mouse system in order to determine efficacy in blocking viral infection in vivo.
Each formulation is initially tested in a total of 20 mice. Compounds or formulations that show a blocking effect are assayed again in another 20 mice.
Subsequently, LSA was assayed without Carrageenan to better evaluate its inhibitory properties. LSA was added to the inert thickener, methylcellulose, to maintain the same viscosity that vaginal products (lubricants, spermicides, and microbicides) generally have. (Data shown below.)

[2] = test system: HIV; assay: Protection of epithelial cells in vitro against HIV infection; type: cell-based
Excerpt: FIG. 5 is a plot of the percent inhibition by LSA of viral replication as measured by p24 ELISA.
(§1) LSA is effective as a microbicide against HSV-2 infection, HIV, and other STI's, with or without carrageenan. […] The inhibitory effect may be observed with other enveloped viruses such as the human pathogen, human T cell leukemia virus. In addition, epithelial cells are protected against the human papillomavirus, which is not an enveloped virus. The inhibitory efficaciousness of LSA may thus extend to a broader range of STI's.

[3] = test system: human papillomavirus; assay: Protection of epithelial cells against human papillomavirus; type: cell-based
Excerpt: as §1

[4] = in vivo, po; cited from earlier work
[5] = in vivo, po; cited from earlier work; remark: listed apart in the source
[6] = in vivo; cited from earlier work
[7] = test system: androgenic, estrogenic and glucocorticoid-like (hepatic glycogen deposition) activity; conditions: cited from earlier work
[8] = test system: progestational potency; conditions: cited from earlier work
[9] = Diffusion of NES through a dialysis membrane (HPLC); type: physicochemical; conditions: molecular weight cutoff 1000, HPLC
Excerpt: FIG. 10 is a graph of the amount of Nestorone released from a composition containing the carrageenans of the present invention.
We examined diffusion of NES through a dialysis membrane with a molecular weight cutoff of 1000. The molecular weight of NES is 370. […] Results are illustrated in FIG. 10. […] However, the rate of diffusion observed through the dialysis membrane cannot be related to the rate of diffusion that would be observed in the human vagina as the rate of diffusion was dependant on the surface area of the dialysis bag. Conditions in the vagina would be different.
Diffusion of NES from CARRA/NES was investigated by two different methods, membrane dialysis and Ultrafree-15 centrifugation. In the membrane dialysis experiments, the membrane cutoff is 1,000, and diffusion of NES was measured by HPLC. […] In the Ultrafree-15 centrifugation experiments, a Millipore, Ultrafree-15 centrifugal filter and tube assembly was employed, which allows the passage of molecules of a MW<500 pass through; NES MW is 370.

heparin
effect of addition to the K-II/λ carrageenan composition on efficacy against HSV-2 infection in mice [1]: had no effect on efficacy

lignosulfonic acid [LSA]
protection of epithelial cells against HIV infection [2]: effective in protecting | protection of epithelial cells against human papillomavirus [3]: protected | effectiveness of LSA ([1]; concentration of 0.25%): highly effective | blocking of HSV-2 infection in mice by LSA without carrageenan ([1]; mouse, in vivo): more effective than carrageenan; also recorded: effective in protecting

carrageenan
toxicity [4]: non-toxic | absorption [5]: virtually non-existent | breakdown in the gastrointestinal tract [5]: minimal at best

dextran sulfate
effect of addition to the K-II/λ carrageenan composition on efficacy against HSV-2 infection in mice [1]: had no effect on efficacy

C=C1C[C@H]2[C@@H]3CCC4=CC(=O)CC[C@@H]4[C@H]3CC[C@]2(C)[C@@]1(OC(C)=O)C(C)=O [NES, 16-methylene-17α-acetoxy-19-norpregn-4-ene-3,20-dione]
metabolism upon oral administration [6]: rapid metabolism and inactivation | androgenic, estrogenic and glucocorticoid-like activity [7]: lack of androgenic, estrogenic and glucocorticoid-like | progestational activity relative to levonorgestrel [8]: 10 times | progestational activity relative to progesterone [8]: 100 times | diffusion of NES through dialysis membrane [9]: diffused from the dialysis bag at a constant rate
